Target: NS5B polymerase (Hepatitis C virus genotype 1b, UniProt P26663)
Experiment: biochemical
Conditions: not given
Description: Compounds were tested for HCV polymerase inhibition. Assays were performed in a 96-well streptavidin-coated FlashPlate using 20 nM enzyme, 0.5 μCi of [α-^33P]GTP, 0.6 μM GTP, and 250 nM 5′biotinylated oligo (rG13)/poly rC in 20 mM Tris-HCl, pH 7.5, 5 mM MgCl2, 5 mM dithiothreitol, 0.1 g/L bovine serum albumin, and 100 U/mL RNAse inhibitor. The reaction was stopped by aspiration after 75 min at 28° C. and the plate was washed several times. After washing and drying the plate, incorporated radioactivity was counted using a Microbeta scintillation counter. IC50 values were calculated relative to the uninhibited control and inhibition data were fitted to a 4-parameter IC50 equation.

Chain of NS5B polymerase (P26663 2420-3010): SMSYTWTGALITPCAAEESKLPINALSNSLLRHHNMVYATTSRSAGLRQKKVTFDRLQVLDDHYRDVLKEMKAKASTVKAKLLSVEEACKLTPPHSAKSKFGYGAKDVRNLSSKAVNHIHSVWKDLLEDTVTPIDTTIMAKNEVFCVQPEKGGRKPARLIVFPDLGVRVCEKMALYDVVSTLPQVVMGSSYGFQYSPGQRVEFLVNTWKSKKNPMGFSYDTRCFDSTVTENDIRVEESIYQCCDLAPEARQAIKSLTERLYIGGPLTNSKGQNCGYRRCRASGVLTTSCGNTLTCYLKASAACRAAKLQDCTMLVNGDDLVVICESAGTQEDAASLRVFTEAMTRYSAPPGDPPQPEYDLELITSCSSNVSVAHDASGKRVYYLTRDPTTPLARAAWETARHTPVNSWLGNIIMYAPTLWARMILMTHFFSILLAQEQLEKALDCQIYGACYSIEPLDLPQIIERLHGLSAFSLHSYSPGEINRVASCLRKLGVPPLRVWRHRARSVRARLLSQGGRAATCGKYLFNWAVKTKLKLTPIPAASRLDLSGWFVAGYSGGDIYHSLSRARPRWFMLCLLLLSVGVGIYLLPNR

SMILES | IC50 [nM]
CS(=O)(=O)Nc1ccc2c(c1)S(=O)(=O)N=C(C1=C(O)C3C4CCC(C4)C3N(Cc3ccc(F)cc3)C1=O)N2 (racemic) [Example 1, (rac-di-exo)-N-{3-[3-(4-Fluoro-benzyl)-6-hydroxy-4-oxo-3-aza-tricyclo[6.2.1.0^2,7]undec-5-en-5-yl]-1,1-dioxo-1,4-dihydro-1λ^6-benzo[1,2,4]thiadiazin-7-yl}-methanesulfonamide] | < 20
CS(=O)(=O)Nc1ccc2c(c1)S(=O)(=O)N=C(C1=C(O)[C@@H]3[C@@H]4CC[C@@H](C4)[C@@H]3N(Cc3ccc(F)cc3)C1=O)N2 [Example 4, N-{3-[(1S,2S,7R,8R)-3-(4-Fluoro-benzyl)-6-hydroxy-4-oxo-3-aza-tricyclo[6.2.1.0^2,7]undec-5-en-5-yl]-1,1-dioxo-1,4-dihydro-1λ^6-benzo[1,2,4]thiadiazin-7-yl}-methanesulfonamide] | < 20

Same assay, conditions: NS5B polymerase inhibition; 20 nM enzyme, 75 min at 28° C.; read-out: IC50

IC50 [nM] | SMILES
< 20 | CS(=O)(=O)Nc1ccc2c(c1)S(=O)(=O)N=C(C1=C(O)[C@@H]3[C@H]4CC[C@H](C4)[C@@H]3N(Cc3ccc(F)c(Cl)c3)C1=O)N2 [Example 58, (1R,2S,7R,8S)-N-{3-[3-(3-Chloro-4-fluoro-benzyl)-6-hydroxy-4-oxo-3-aza-tricyclo[6.2.1.0^2,7]undec-5-en-5-yl]-1,1-dioxo-1,4-dihydro-1λ^6-benzo[1,2,4]thiadiazin-7-yl}-methanesulfonamide]
< 20 | Cc1cc(CN2C(=O)C(C3=NS(=O)(=O)c4cc(NS(C)(=O)=O)ccc4N3)=C(O)[C@H]3[C@@H]2[C@@H]2CC[C@H]3O2)ccc1F [Example 11, N-{3-[(1S,2R,7S,8R)-3-(4-Fluoro-3-methyl-benzyl)-6-hydroxy-4-oxo-11-oxa-3-aza-tricyclo[6.2.1.0^2,7]undec-5-en-5-yl]-1,1-dioxo-1,4-dihydro-1λ^6-benzo[1,2,4]thiadiazin-7-yl}-methanesulfonamide]
20 to 100 | Cc1cc(CN2C(=O)C(C3=NS(=O)(=O)c4cc(N(C)S(C)(=O)=O)ccc4N3)=C(O)[C@@H]3[C@H]4CC[C@H](C4)[C@@H]32)ccc1F [Example 18, N-{3-[(1R,2S,7R,8S)-3-(4-Fluoro-3-methyl-benzyl)-6-hydroxy-4-oxo-3-aza-tricyclo[6.2.1.0^2,7]undec-5-en-5-yl]-1,1-dioxo-1,4-dihydro-1λ^6-benzo[1,2,4]thiadiazin-7-yl}-N-methyl-methanesulfonamide]
< 20 | O=C1C(C2=NS(=O)(=O)c3cc(NS(=O)(=O)C4CC4)ccc3N2)=C(O)C2C3C=CC(C3)C2N1Cc1ccc(F)cc1 (racemic) [Example 46, (rac-di-exo)-Cyclopropanesulfonic acid{3-[3-(4-fluoro-benzyl)-6-hydroxy-4-oxo-3-aza-tricyclo[6.2.1.0^2,7]undeca-5,9-dien-5-yl]-1,1-dioxo-1,4-dihydro-1λ^6-benzo[1,2,4]thiadiazin-7-yl}-amide]
100 to 1000 | CC(C)CCN1C(=O)C(C2=NS(=O)(=O)c3cc(N(C)S(C)(=O)=O)ccc3N2)=C(O)[C@@H]2[C@H]3CC[C@H](C3)[C@@H]21 [Example 24, (1R,2S,7R,8S)-N-{3-[6-Hydroxy-3-(3-methyl-butyl)-4-oxo-3-aza-tricyclo[6.2.1.0^2,7]undec-5-en-5-yl]-1,1-dioxo-1,4-dihydro-1λ^6-benzo[1,2,4]thiadiazin-7-yl}-N-methyl-methanesulfonamide]
20 to 100 | CC(C)CCN1C(=O)C(C2=NS(=O)(=O)c3cc(NS(C)(=O)=O)ccc3N2)=C(O)[C@@H]2[C@H]3CC[C@H](C3)[C@@H]21 [Example 22, (1R,2S,7R,8S)-N-{3-[6-Hydroxy-3-(3-methyl-butyl)-4-oxo-3-aza-tricyclo[6.2.1.0^2,7]undec-5-en-5-yl]-1,1-dioxo-1,4-dihydro-1λ^6-benzo[1,2,4]thiadiazin-7-yl}-methanesulfonamide]
20 to 100 | CC(C)CCN1C(=O)C(C2=NS(=O)(=O)c3cc(NS(C)(=O)=O)ccc3N2)=C(O)C2C3C=CC(C3)C21 (racemic) [Example 31, (rac-di-exo)-N-{3-[6-Hydroxy-3-(3-methyl-butyl)-4-oxo-3-aza-tricyclo[6.2.1.0^2,7]undeca-5,9-dien-5-yl]-1,1-dioxo-1,4-dihydro-1λ^6-benzo[1,2,4]thiadiazin-7-yl}-methanesulfonamide]
20 to 100 | CC(C)(C)CCN1C(=O)C(C2=NS(=O)(=O)c3cc(NS(C)(=O)=O)ccc3N2)=C(O)C2C3C=CC(C3)C21 (racemic) [Example 32, (rac-di-exo)-N-{3-[3-(3,3-Dimethyl-butyl)-6-hydroxy-4-oxo-3-aza-tricyclo[6.2.1.0^2,7]undeca-5,9-dien-5-yl]-1,1-dioxo-1,4-dihydro-1λ^6-benzo[1,2,4]thiadiazin-7-yl}-methanesulfonamide]
1000 to 100000 | O=C1C(C2=NS(=O)(=O)c3cc(I)ccc3N2)=C(O)[C@@H]2[C@H]3CC[C@H](C3)[C@@H]2N1Cc1ccc(F)cc1 [Example 19, (1R,2S,7R,8S)-3-(4-Fluoro-benzyl)-6-hydroxy-5-(7-iodo-1,1-dioxo-1,4-dihydro-1λ^6-benzo[1,2,4]thiadiazin-3-yl)-3-aza-tricyclo[6.2.1.0^2,7]undec-5-en-4-one]
20 to 100 | O=C1C(C2=NS(=O)(=O)c3cc(C4CCCS4(=O)=O)ccc3N2)=C(O)[C@@H]2[C@H]3CC[C@H](C3)[C@@H]2N1Cc1ccc(F)cc1 (stereo partly drawn) [Example 21, (1R,2S,7R,8S)-5-[7-(1,1-Dioxo-tetrahydro-1λ^6-thiophen-2-yl)-1,1-dioxo-1,4-dihydro-1λ^6-benzo[1,2,4]thiadiazin-3-yl]-3-(4-fluoro-benzyl)-6-hydroxy-3-aza-tricyclo[6.2.1.0^2,7]undec-5-en-4-one]
20 to 100 | CS(=O)(=O)Nc1ccc2c(c1)S(=O)(=O)N=C(C1=C(O)C3C4CCC(C5CC54)C3N(Cc3ccc(F)cc3)C1=O)N2 (racemic) [Example 52]
20 to 100 | CC(C)CCN1C(=O)C(C2=NS(=O)(=O)c3cc(NS(=O)(=O)C4CC4)ccc3N2)=C(O)C2C3CCC(O3)C21 (racemic) [Example 42, (rac-di-exo)-Cyclopropanesulfonic acid{3-[6-hydroxy-3-(3-methyl-butyl)-4-oxo-11-oxa-3-aza-tricyclo[6.2.1.0^2,7]undec-5-en-5-yl]-1,1-dioxo-1,4-dihydro-1λ^6-benzo[1,2,4]thiadiazin-7-yl}-amide]
20 to 100 | CS(=O)(=O)Nc1ccc2c(c1)S(=O)(=O)N=C(C1=C(O)[C@@H]3[C@H]4CC[C@H](C4)[C@@H]3N(CCC3CC3)C1=O)N2 [Example 66, N-{3-[(1R,2S,7R,8S)-3-(2-Cyclopropyl-ethyl)-6-hydroxy-4-oxo-3-aza-tricyclo[6.2.1.0^2,7]undec-5-en-5-yl]-1,1-dioxo-1,4-dihydro-1λ^6-benzo[1,2,4]thiadiazin-7-yl}-methanesulfonamide]
< 20 | CS(=O)(=O)Nc1ccc2c(c1)S(=O)(=O)N=C(C1=C(O)[C@@H]3[C@H]4CC[C@H](C4)[C@@H]3N(Cc3ccccc3)C1=O)N2 [Example 56, (1R,2S,7R,8S)-N-[3-(3-Benzyl-6-hydroxy-4-oxo-3-aza-tricyclo[6.2.1.0^2,7]undec-5-en-5-yl)-1,1-dioxo-1,4-dihydro-1λ^6-benzo[1,2,4]thiadiazin-7-yl]-methanesulfonamide]
20 to 100 | CC(C)(C)CCN1C(=O)C(C2=CS(=O)(=O)c3cc(NS(C)(=O)=O)ccc3N2)=C(O)C2C3C=CC(C3)C21 (racemic) [Example 36, (rac-di-exo)-N-{3-[3-(3,3-Dimethyl-butyl)-6-hydroxy-4-oxo-3-aza-tricyclo[6.2.1.0^2,7]undeca-5,9-dien-5-yl]-1,1-dioxo-1,4-dihydro-1λ^6-benzo[1,4]thiazin-7-yl}-methanesulfonamide]
< 20 | CS(=O)(=O)Nc1ccc2c(c1)S(=O)(=O)N=C(C1=C(O)C3C4CCC(O4)C3N(CCC3CC3)C1=O)N2 (racemic) [Example 23, (rac-di-exo)-N-{3-[3-(2-Cyclopropyl-ethyl)-6-hydroxy-4-oxo-11-oxa-3-aza-tricyclo[6.2.1.0^2,7]undec-5-en-5-yl]-1,1-dioxo-1,4-dihydro-1λ^6-benzo[1,2,4]thiadiazin-7-yl}-methanesulfonamide]
100 to 1000 | O=C1C(C2=NS(=O)(=O)c3ccccc3N2)=C(O)[C@@H]2[C@H]3CC[C@H](C3)[C@@H]2N1Cc1ccc(F)cc1 [Example 28, (1R,2S,7R,8S)-5-(1,1-Dioxo-1,4-dihydro-1λ^6-benzo[1,2,4]thiadiazin-3-yl)-3-(4-fluoro-benzyl)-6-hydroxy-3-aza-tricyclo[6.2.1.0^2,7]undec-5-en-4-one]
100 to 1000 | CC(C)CCN1C(=O)C(C2=NS(=O)(=O)c3cc(N(C)S(C)(=O)=O)ccc3N2)=C(O)C2C3CCC(O3)C21 (racemic) [Example 59, (rac-di-exo)-N-{3-[6-Hydroxy-3-(3-methyl-butyl)-4-oxo-11-oxa-3-aza-tricyclo[6.2.1.0^2,7]undec-5-en-5-yl]-1,1-dioxo-1,4-dihydro-1λ^6-benzo[1,2,4]thiadiazin-7-yl}-N-methyl-methanesulfonamide]
< 20 | CS(=O)(=O)Nc1ccc2c(c1)S(=O)(=O)C=C(C1=C(O)[C@@H]3[C@H]4CC[C@H](C4)[C@@H]3N(Cc3ccc(F)cc3)C1=O)N2 [Example 29, N-{3-[(1R,2S,7R,8S)-3-(4-Fluoro-benzyl)-6-hydroxy-4-oxo-3-aza-tricyclo[6.2.1.0^2,7]undec-5-en-5-yl]-1,1-dioxo-1,4-dihydro-1λ^6-benzo[1,4]thiazin-7-yl}-methanesulfonamide]
100 to 1000 | CS(=O)(=O)Nc1ccc2c(c1)S(=O)(=O)N=C(C1=C(O)C3C([C@@H]4CC[C@H]3C4)N(C3CCCC3)C1=O)N2 (stereo partly shown) [Example 44]

Source: patent publication US8765741B2, “5,6-dihydro-1H-pyridin-2-one compounds” (Anadys Pharmaceuticals, Inc., priority 2007, dated 2014)
